In the experiment the target is T1, Dimethylarginine dimethylaminohydrolase 1 (DDAH1) (Homo sapiens, UniProt O94760).
T1 construct: N-terminal fusion protein with glutathione S-transferase (DDAH1-GST)
As to the kind of experiment: MicroScale Thermophoresis (MST) with purified recombinant protein; hydrolysis to L-citrulline also measured. Particulars: read-out: Binding status Kd (μM) ± confidence values. For orientation: In MST a laser heats a spot of the sample, and binding alters the fluorescence response.

T1 sequence (O94760 whole entry, the tested form may be a part): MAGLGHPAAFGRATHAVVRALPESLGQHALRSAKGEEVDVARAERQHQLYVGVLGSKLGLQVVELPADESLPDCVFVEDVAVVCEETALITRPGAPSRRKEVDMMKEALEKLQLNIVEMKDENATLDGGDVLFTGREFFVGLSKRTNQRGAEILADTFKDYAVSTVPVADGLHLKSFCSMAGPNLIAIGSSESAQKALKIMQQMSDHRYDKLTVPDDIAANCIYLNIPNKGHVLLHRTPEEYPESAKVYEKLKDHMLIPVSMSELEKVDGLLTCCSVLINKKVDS

Consider `CN(C)C(=N)NCCC[C@H](N)C(=O)O` [ADMA], for which the Kd was 4.27 ± 0.46 µM.

The Kd is the equilibrium constant for the complex coming apart.
